# Where two headings read alike, the source gives them in different places.
# Assays:
# [1] = tested on: IBS patients; conditions: cited from earlier work
# [2] = tested on: subjects with d-IBS; experiment: Adequate relief of IBS symptoms and bloating (weekly yes/no questions), rifaximin BID study in d-IBS; assay type: in vivo, human; conditions: for Percentage of Subjects with Number of Weeks with Adequate Relief of Bloating Symptoms / Percentage of Subjects with Number of Weeks with Adequate Relief of IBS Symptoms: RFX 550 mg BID, ITT; for Adequate Relief of Bloating: Failure / Adequate Relief of IBS symptoms: Failure / Adequate Relief of Bloating: Success / Adequate Relief of IBS symptoms: Success: Female; for Adequate Relief of Bloating: Success / Adequate Relief of IBS symptoms: Success: end of the Treatment Phase
# Procedure: This example relates to a study of rifaximin in subjects with d-IBS. […] There were two measures of efficacy assessed. Subjects were questioned on the relief of overall IBS symptoms and bloating. […] The analyses defined success as a “yes” response to questions regarding adequate relief.
# All subpopulations in the study responded to therapy. Baseline severity was determined using 7-point Lickert scales during screening for Abdominal Pain/Discomfort and Bloating, and the number, type (normal, hard, loose) and urgency of bowel movements.
# Duration of effect was assessed in a follow-up period. Subjects that responded in the 4 week treatment period were followed for an additional 3 months.
# The effect of treatment on the percentage of subjects who reported adequate relief of IBS and bloating symptoms for at least two of the final three weeks during the treatment phase (Weeks 1 to 4) is shown in Tables 5-7 and FIGS. 4-6 below.
# The study assessed the effect over 12 weeks of follow-up on long-term adequate relief. Subjects who had adequate relief by Week 4 and remained symptom-free at Week 5 were followed during the post-treatment phase and shown in FIGS. 1 and 2. Superiority to placebo was maintained during the 12 weeks post-treatment follow-up. Results for IBS symptoms were RFX 550 mg BID 62.3% versus placebo 49.2%, and RFX 550 mg BID 59.3% versus 50.9% for placebo for the symptom of bloating through week 16. In assessing the follow-up data, there was statistical significance (p<0.05) of bloating and IBS symptoms for RFX 550 mg BID versus placebo.
# Two measures of efficacy were assessed independently. The first was the proportion of subjects who provided a ‘yes’ response to the weekly SGA question: “In the past 7 days, have you had adequate relief of your IBS symptoms? (yes/no)”. The second endpoint was the proportion of subjects who provide a ‘yes’ response to the weekly individual symptom question: “In the past 7 days, have you had adequate relief of your symptom of bloating? (yes/no)”. Durability was based on the proportion of subjects that had adequate relief over the entire treatment phase.
# It is reported herein that the severity of baseline symptoms of abdominal pain and bloating influenced the response to rifaximin treatment. The co-primary endpoints in this analysis assessed weekly yes/no responses to questions regarding adequate relief of global IBS symptoms and IBS-associated bloating. Severity of baseline IBS symptoms was evaluated as a potential confounder of clinical response and was categorized as mild/moderate or severe based on a mean score of ≦4 vs. >4 (on a 7-point scale) for bloating and abdominal pain.
# The Weekly yes/no responses to questions regarding adequate relief of global IBS symptoms and IBS-associated bloating were assessed. Clinical response was defined as adequate relief for 2 of the final 3 treatment weeks (wk 2, 3, or 4). Severity of baseline IBS symptoms was evaluated as a potential confounder of clinical response and was categorized as mild/moderate or severe based on a mean score of ≦4 versus >4 (on a 7-point scale (0=not bothersome; 6=very bothersome)) for bloating and abdominal pain.
# [3] = Pimentel, et al., responders/treated
# [4] = Yang, et al, responders/treated
smiles,measurement,setting,value
"CO[C@H]1/C=C/O[C@@]2(C)Oc3c(C)c(O)c4c(O)c(c5c(nc6cc(C)ccn65)c4c3C2=O)NC(=O)/C(C)=C\C=C\[C@H](C)[C@H](O)[C@@H](C)[C@@H](O)[C@@H](C)[C@H](OC(C)=O)[C@@H]1C [Rifaximin, (2S,16Z,18E,20S,21S,22R, 23R,24R,25S,26S,27S,28E)-5,6,21,23,25 Pentahydroxy-27-methoxy-2,4,11,16,20,22,24,26-octamethyl-2,7-(epoxypentadeca-(1,11,13)trienimino) benzofuro (4,5-e) pyrido(1,2,-a) benzimidazole-1,15(2H)-dione,25-acetate]",Initial treatment response,"[1]; Jolley, IBS-D patients, 1200 mg/day for 10 days",Initial treatment response: 56% (25/45)
same,Re-treatment response (at least 1),"[1]; Jolley, IBS-D patients, 2400 mg/day for 10 days",Re-treatment response (at least 1): 54%
same,Complete (>90%) relief,"[1]; Jolley, IBS-D patients",Complete (>90%) relief: 11% (5/45)
same,Complete (>90%) relief upon re-treatment,"[1]; Jolley, IBS-D patients",re-treatment: 13% (3/24)
same,Re-treatment response (at least 1),"[1]; Pimentel, et al., 1 to 6 re-treatments",> 75%
same,Initial treatment response,"[1]; Pimentel, et al., 169 Non-C IBS Patients (Rome III), 400-550 mg TID for 14 days",Initial treatment response: 75%
same,Duration of benefit,"[1]; Pimentel, et al.",Duration of benefit is ~4 m
same,"Re-treatment response, First",[1]; [3],54/65
same,"Re-treatment response, Second",[1]; [3],38/40
same,"Re-treatment response, Third",[1]; [3],17/18
same,Initial treatment response,"[1]; Weinstock, 99 Non-C IBS Patients (Rome II), 1200-1650 mg/day for 10 days",Initial treatment response: 75% (74/99)
same,Patients who did not require retreatment,[1]; Weinstock,27% did not require retreatment
same,Patients with only 12 retreatment in 2 y,[1]; Weinstock,51% only 12 retreatment in 2 y
same,Patients who maintained response,"[1]; Weinstock, for mean 1.6 y",41%
same,Mean time response was maintained,"[1]; Weinstock, in the 41% who maintained response",1.6 y
same,Re-treatment response (at least 1),"[1]; Yang, et al, 1200 mg/day for 10 days",100%
same,Initial treatment response,"[1]; Yang, et al, 84 IBS Patients (Rome I), 1200 mg/day for 10 days",Initial treatment response: 69% (58/84)
same,"Re-treatment response, First",[1]; [4],16/16
same,"Re-treatment response, Second",[1]; [4],4/4
same,Percentage of Subjects with Number of Weeks with Adequate Relief of Bloating Symptoms,[2]; 0 weeks,35%
same,Percentage of Subjects with Number of Weeks with Adequate Relief of IBS Symptoms,[2]; 0 weeks,33%
same,Percentage of Subjects with Number of Weeks with Adequate Relief of Bloating Symptoms,[2]; 1 week,14%
same,Percentage of Subjects with Number of Weeks with Adequate Relief of IBS Symptoms,[2]; 1 week,11%
same,Percentage of Subjects with Number of Weeks with Adequate Relief of Bloating Symptoms,[2]; 2 weeks,15%
same,Percentage of Subjects with Number of Weeks with Adequate Relief of IBS Symptoms,[2]; 2 weeks,15%
same,Percentage of Subjects with Number of Weeks with Adequate Relief of Bloating Symptoms,[2]; 3 weeks,20%
same,Percentage of Subjects with Number of Weeks with Adequate Relief of IBS Symptoms,[2]; 3 weeks,23%
same,Percentage of Subjects with Number of Weeks with Adequate Relief of Bloating Symptoms,[2]; 4 weeks,14%
same,Percentage of Subjects with Number of Weeks with Adequate Relief of IBS Symptoms,[2]; 4 weeks,16%
same,"Treatment effect, Bloating",[2]; Age <65,6.8%
same,"Treatment effect, IBS Sx",[2]; Age <65,6.9%
same,"Treatment effect, Bloating",[2]; Age ≧65,3.2%
same,"Treatment effect, IBS Sx",[2]; Age ≧65,19.1%
same,"Treatment effect, Bloating",[2]; Diabetes History N,7.4%
same,"Treatment effect, IBS Sx",[2]; Diabetes History N,9.5%
same,"Treatment effect, Bloating",[2]; Diabetes History Y,−5.6%
same,"Treatment effect, IBS Sx",[2]; Diabetes History Y,−12.7%
same,"Treatment effect, Bloating",[2]; Disease Duration 10-20 y,11.7%
same,"Treatment effect, IBS Sx",[2]; Disease Duration 10-20 y,20.1%
same,"Treatment effect, Bloating",[2]; Disease Duration >20 y,35.1%
same,"Treatment effect, IBS Sx",[2]; Disease Duration >20 y,46.6%
same,"Treatment effect, Bloating",[2]; Disease Duration ≦10 y,2.8%
same,"Treatment effect, IBS Sx",[2]; Disease Duration ≦10 y,1.8%
same,Adequate Relief of Bloating: Failure,[2]; RFX 275 2w,52 (64.2%)
same,Adequate Relief of IBS symptoms: Failure,[2]; RFX 275 2w,46 (56.8%)
same,Adequate Relief of Bloating: Success,[2]; RFX 275 2w,29 (35.8%)
same,Adequate Relief of IBS symptoms: Success,[2]; RFX 275 2w,35 (43.2%)
same,Adequate Relief of Bloating: Failure,[2]; RFX 550 2w,74 (54.0%)
same,Adequate Relief of IBS symptoms: Failure,[2]; RFX 550 2w,66 (48.2%)
same,Adequate Relief of Bloating: Success,[2]; RFX 550 2w,63 (46.0%)
same,Adequate Relief of IBS symptoms: Success,[2]; RFX 550 2w,71 (51.8%)
same,Adequate Relief of Bloating: Failure,[2]; RFX 550 4w,44 (57.9%)
same,Adequate Relief of IBS symptoms: Failure,[2]; RFX 550 4w,42 (55.3%)
same,Adequate Relief of Bloating: Success,[2]; RFX 550 4w,32 (42.1%)
same,Adequate Relief of IBS symptoms: Success,[2]; RFX 550 4w,34 (44.7%)
same,Adequate Relief of Bloating: Failure,[2]; RFX 1100 2w,45 (61.6%)

# Reference: patent publication US20130184302A1, “METHODS FOR TREATING IRRITABLE BOWEL SYNDROME (IBS) AND INFECTIONS” (priority 2011, published 2013)
